According to PMC9106035, “Synthesis, X-ray Structure and Biological Studies of New Self-Assembled Cu(II) Complexes Derived from s-Triazine Schiff Base Ligand” (Molecules, 2022):

Assays:
[1] = DPPH radical scavenging assay; format: biochemical; settings: for IC50 (DPPH scavenging): antioxidant activity
Protocol: The studied Cu(II) complexes and the free ligands were assessed for their antioxidant activity levels using an α,α-diphenyl-β-picrylhydrazyl (DPPH) scavenging assay, and the results are given in Table 7. […] The results indicated better antioxidant activity for DMAT than for DMOHT, indicating the effect of the substituent at the phenyl moiety on the antioxidant activity level of the free ligand. […] On the other hand, the Cu(II) complexes have improved levels of antioxidant activity compared to the free ligands.
Method S3 DPPH Radical Scavenging Activity:
Freshly prepared (0.004 %w/v) methanol solution of 2,2-diphenyl-1-pi crylhydrazyl (DPPH) radical was prepared and stored at 10 °C in dark place. A methanolic solution of the test compound was prepared using the same procedure. A 40 uL aliquot of the methanol solution was added to 3mL of DPPH solution. Absorbance measurements were recorded immediately with a UV-visible spectrophotometer (Milton Roy, Spectronic 1201). The decrease in absorbance at 515 nm was determined continuously, with data being recorded at 1 min intervals until the absorbance stabilized (16 min). The absorbance of the DPPH radical without antioxidant (control) and the reference compound ascorbic acid were also measured.
All the determinations were performed in three replicates and averaged. The percentage inhibition (PI) of the DPPH radical was calculated according to the […]
PI = [{(AC- AT)/ AC} x 100] (1)
Where AC = Absorbance of the control at t = 0 min and AT = absorbance of the sample+DPPH at t = 16 min. The 50% inhibitory concentration (IC50), the concentration required t o inhibit DPPH radical by 50%, was estimated from graphic plots of the dose respons e curve.

[2] = tested on: lung carcinoma A-549 cell line; experiment: Anticancer activity, MTT viability assay; format: cell-based; settings: for Inhibitory % / Viability %: A-549; for SI = CC50/IC50: CC50 (MRC-5) / IC50 (A-549)
Protocol: The studied compounds were examined for their anticancer activity against the lung carcinoma A-549 cell line.
(§1) Method S4 Evaluation of Cytotoxic activity
(§2) The cells were propagated in Dulbecco’s modified Eagle’s medium (DMEM) supplemented with 10% heat-inactivated fetal bovine serum, 1 % L-glutamine, HEPES buffer and 50µg/mL Gentamycin. All cells were maintained at 37 °C in a humidified atmosphere with 5% CO2 and were subcultured tw o times a week.
(§3) Cytotoxicity evaluation using viability assay
(§4) For cytotoxicity assay, the cells were seeded in 96-well plate at a cell concentration of 1×10^4 cells per well in 100µl of growth medium. Fresh medium containing different concentrations of the test sample was added after 24 h of seeding. Serial two-fold dilutions of the tested chemical compound were added to confluent cell monolayers dispensed into 96-well, flat-bottomed microtiter plates (Falcon, NJ, USA) using a multichannel pipette. The microtiter plates were incubated at 37 °C in a humidified incubator with 5% CO2 for a period of 24 h. Three wells were used for each concentration of the test sample. Control cells were incubated without test sample and with or without DMSO. The little percentage of DMSO present in the […]
(§5) cells for at 37°C, for 24 h, the viabl e cells yield was determined by the MTT test.
(§6) Briefly, the media was removed from the 96 well plate and replaced with 100 µL of fresh culture DMEM m edium without phenol red then 10 µL of the 12 mM MTT stock solution (5 mg of MTT in 1 mL of PBS) to each well including the untreated controls. The 96 well plates were then incubated at 37°C and 5% CO2 for 4 hours. An 85 µL aliquot of the media was removed from t he wells, and 50 µL of DMSO was added to each well and mixed thoroughly with the pipette and incubated at 37°C for 10 min. Then, the optical density was measured at 590 nm with the microplate reader (SunRise, TECAN, Inc, USA) to determine the number of viable cells and the percentage of viability was calculat ed as [(ODt/ODc)]x100% where ODt i s the mean optical density of wells treated with the tested s ample and ODc is the mean optical density of untreated cells. The relation between surviving cells and drug concentration is plotted to get the survival curve of each tumor cell line after treatment with the specified compound. The 50% inhibitory concentration (IC50), the concentration required to cause t oxic effects in 50% of intact cells, was estimated from graphic plots of the dose response curve for each conc. using Graphpad Prism software (San Diego, […]

[3] = tested on: normal human lung fibroblast MRC-5 cells; experiment: Cytotoxic activity on normal cells, MTT viability assay; format: cell-based; settings: for Inhibitory % / Viability %: MRC-5; for CC50: MRC-5 cells, 24 h, MTT
Protocol: In this regard, the selectivity index (SI) was calculated as the ratio of cytotoxic effect on the normal cell line to the cytotoxic effect on the cancer cell line.
as §1, §2, §3, §4, §5, §6

[4] = sample conc. 120.0 µM, Table S8
[5] = sample conc. 239.9 µM, Table S8
[6] = sample conc. 479.8 µM, Table S8
[7] = sample conc. 959.6 µM, Table S8
[8] = sample conc. 15.0 µM, Table S13
[9] = sample conc. 29.9 µM, Table S13
[10] = sample conc. 60.0 µM, Table S13
[11] = sample conc. 120.0 µM, Table S13
[12] = sample conc. 239.9 µM, Table S13
[13] = sample conc. 479.8 µM, Table S13
[14] = sample conc. 959.6 µM, Table S13
[15] = sample conc. 119.3 µM, Table S9
[16] = sample conc. 238.6 µM, Table S9
[17] = sample conc. 477.1 µM, Table S9
[18] = sample conc. 954.2 µM, Table S9
[19] = sample conc. 14.9 µM, Table S14
[20] = sample conc. 29.8 µM, Table S14
[21] = sample conc. 59.6 µM, Table S14
[22] = sample conc. 119.3 µM, Table S14
[23] = sample conc. 238.6 µM, Table S14
[24] = sample conc. 477.1 µM, Table S14
[25] = sample conc. 954.2 µM, Table S14

In the case of `CC(=NNc1nc(N2CCOCC2)nc(N2CCOCC2)n1)c1ccccc1[O-].CC(=O)[O-].[Cu+2]` [Complex 2, [Cu(DMOT)(CH3COO)]], the “DPPH Scavenging %” value ([1]; Conc. 2.5 μg/mL) is reported as 9.39%, the “DPPH Scavenging %” value ([1]; Conc. 5 μg/mL) is reported as 17.66% and the “DPPH Scavenging %” value ([1]; Conc. 10 μg/mL) is reported as 36.52%. The “DPPH Scavenging %” value ([1]; Conc. 20 μg/mL) was 49.08%, the “DPPH Scavenging %” value ([1]; Conc. 40 μg/mL) was 67.84% and the “DPPH Scavenging %” value ([1]; Conc. 80 μg/mL) was 78.62%. For the same compound, the “DPPH Scavenging %” value ([1]; Conc. 160 μg/mL) was 83.14%, the “DPPH Scavenging %” value ([1]; Conc. 320 μg/mL) was 88.03% and the “DPPH Scavenging %” value ([1]; Conc. 640 μg/mL) was 92.15%. The “DPPH Scavenging %” value ([1]; Conc. 1280 μg/mL) was 94.54%, the “IC50 (DPPH scavenging)” value [1] was 20.93 ± 0.91 µg/mL and the Inhibitory % ([2]; sample conc. 1.9 µM, Table S8) was 0%. For the same compound, the Viability % ([2]; sample conc. 1.9 µM, Table S8) was 100%, the Inhibitory % ([2]; sample conc. 3.8 µM, Table S8) was 2.84% and the Viability % ([2]; sample conc. 3.8 µM, Table S8) was 97.16%. It also gave an Inhibitory % ([2]; sample conc. 7.5 µM, Table S8) of 10.59%, a Viability % ([2]; sample conc. 7.5 µM, Table S8) of 89.41% and an Inhibitory % ([2]; sample conc. 15.0 µM, Table S8) of 21.88%. The Viability % ([2]; sample conc. 15.0 µM, Table S8) was 78.12%, the Inhibitory % ([2]; sample conc. 29.9 µM, Table S8) was 40.57% and the Viability % ([2]; sample conc. 29.9 µM, Table S8) was 59.43%. It also gave an Inhibitory % ([2]; sample conc. 60.0 µM, Table S8) of 58.63%, a Viability % ([2]; sample conc. 60.0 µM, Table S8) of 41.37% and an Inhibitory % [2, 4] of 71.3%. The Viability % [2, 4] was 28.70%, the Inhibitory % [2, 5] was 83.57% and the Viability % [2, 5] was 16.43%. For the same compound, the Inhibitory % [2, 6] was 92.15%, the Viability % [2, 6] was 7.85% and the Inhibitory % [2, 7] was 96.38%. For the same compound, the Viability % [2, 7] was 3.62%, the “SI = CC50/IC50” value [2] was 0.72 and the Inhibitory % ([3]; sample conc. 1.9 µM, Table S13) was 0%. It also gave a Viability % ([3]; sample conc. 1.9 µM, Table S13) of 100%, an Inhibitory % ([3]; sample conc. 3.8 µM, Table S13) of 0% and a Viability % ([3]; sample conc. 3.8 µM, Table S13) of 100%. For the same compound, the Inhibitory % ([3]; sample conc. 7.5 µM, Table S13) was 1.29%, the Viability % ([3]; sample conc. 7.5 µM, Table S13) was 98.71% and the Inhibitory % [3, 8] was 7.13%. It also gave a Viability % [3, 8] of 92.87%, an Inhibitory % [3, 9] of 13.76% and a Viability % [3, 9] of 86.24%. It also gave an Inhibitory % [3, 10] of 32.82%, a Viability % [3, 10] of 67.18% and an Inhibitory % [3, 11] of 57.65%. It also gave a Viability % [3, 11] of 42.35%, an Inhibitory % [3, 12] of 72.02% and a Viability % [3, 12] of 27.98%. For the same compound, the Inhibitory % [3, 13] was 84.79%, the Viability % [3, 13] was 15.21% and the Inhibitory % [3, 14] was 94.26%. For the same compound, the Viability % [3, 14] was 5.74% and the CC50 [3] was 101 µM.

With `CC(=NNc1nc(N2CCOCC2)nc(N2CCOCC2)n1)c1ccccc1[O-].O=[N+]([O-])[O-].[Cu+2]` [Complex 3, [Cu(DMOT)(NO3)]] the “DPPH Scavenging %” value ([1]; Conc. 2.5 μg/mL) was 11.46%, the “DPPH Scavenging %” value ([1]; Conc. 5 μg/mL) was 18.73% and the “DPPH Scavenging %” value ([1]; Conc. 10 μg/mL) was 32.95%. The “DPPH Scavenging %” value ([1]; Conc. 20 μg/mL) was 51.32%, the “DPPH Scavenging %” value ([1]; Conc. 40 μg/mL) was 68.9% and the “DPPH Scavenging %” value ([1]; Conc. 80 μg/mL) was 81.47%. For the same compound, the “DPPH Scavenging %” value ([1]; Conc. 160 μg/mL) was 85.92%, the “DPPH Scavenging %” value ([1]; Conc. 320 μg/mL) was 90.81% and the “DPPH Scavenging %” value ([1]; Conc. 640 μg/mL) was 94.29%. For the same compound, the “DPPH Scavenging %” value ([1]; Conc. 1280 μg/mL) was 95.76%, the “IC50 (DPPH scavenging)” value [1] was 19.31 ± 0.73 µg/mL and the Inhibitory % ([2]; sample conc. 1.9 µM, Table S9) was 0%. It also gave a Viability % ([2]; sample conc. 1.9 µM, Table S9) of 100%, an Inhibitory % ([2]; sample conc. 3.8 µM, Table S9) of 1.37% and a Viability % ([2]; sample conc. 3.8 µM, Table S9) of 98.63%. For the same compound, the Inhibitory % ([2]; sample conc. 7.4 µM, Table S9) was 7.25%, the Viability % ([2]; sample conc. 7.4 µM, Table S9) was 92.75% and the Inhibitory % ([2]; sample conc. 14.9 µM, Table S9) was 19.54%. It also gave a Viability % ([2]; sample conc. 14.9 µM, Table S9) of 80.46%, an Inhibitory % ([2]; sample conc. 29.8 µM, Table S9) of 32.81% and a Viability % ([2]; sample conc. 29.8 µM, Table S9) of 67.19%. The Inhibitory % ([2]; sample conc. 59.6 µM, Table S9) was 50.72%, the Viability % ([2]; sample conc. 59.6 µM, Table S9) was 49.28% and the Inhibitory % [2, 15] was 63.38%. For the same compound, the Viability % [2, 15] was 36.62%, the Inhibitory % [2, 16] was 76.06% and the Viability % [2, 16] was 23.94%. It also gave an Inhibitory % [2, 17] of 88.72%, a Viability % [2, 17] of 11.28% and an Inhibitory % [2, 18] of 95.13%. The Viability % [2, 18] was 4.87%, the IC50 ([2]; A-549 cells, 24 h, MTT) was 58.3 µM and the “SI = CC50/IC50” value [2] was 2.96. For the same compound, the “SI = CC50/IC50” value ([2]; listed as 3) was 2.97, the Inhibitory % ([3]; sample conc. 1.9 µM, Table S14) was 0% and the Viability % ([3]; sample conc. 1.9 µM, Table S14) was 100%. The Inhibitory % ([3]; sample conc. 3.8 µM, Table S14) was 0%, the Viability % ([3]; sample conc. 3.8 µM, Table S14) was 100% and the Inhibitory % ([3]; sample conc. 7.4 µM, Table S14) was 0%. The Viability % ([3]; sample conc. 7.4 µM, Table S14) was 100%, the Inhibitory % [3, 19] was 1.37% and the Viability % [3, 19] was 98.63%. For the same compound, the Inhibitory % [3, 20] was 10.83%, the Viability % [3, 20] was 89.17% and the Inhibitory % [3, 21] was 23.08%. For the same compound, the Viability % [3, 21] was 76.92%, the Inhibitory % [3, 22] was 42.86% and the Viability % [3, 22] was 57.14%. The Inhibitory % [3, 23] was 58.72%, the Viability % [3, 23] was 41.28% and the Inhibitory % [3, 24] was 79.35%. The Viability % [3, 24] was 20.65%, the Inhibitory % [3, 25] was 92.46% and the Viability % [3, 25] was 7.54%. It also gave a CC50 [3] of 173 µM.
